# According to PubChem BioAssay AID1963983 (Molecular Pharmacology Branch, DTP, NCI, 2024):
# Test system: 186277-243-T-J2-PDC multi-cell spheroid viability
# Assay: Anticancer human tumor 186277-243-T-J2-PDC patient-derived colon adenocarcinoma cell line growth inhibition [PI3K]
# Conditions: for viability, T/C: stronger effect = lower value
# Summary of the method: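 We assembled tumor spheroids that included a stromal compartment of HUVEC and MSCs, then exposed them to targeted agents alone and together with PI3K pathway inhibitors. Concentration series descended by half-log from clinically achievable Cmax levels. Viability served as the endpoint.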
# 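Also: spheroids exposed to compounds for seven days before viability reading.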
# 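For viability, T/C in this document: 100% = DMSO vehicle control viability.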
compound,measurement,setting,value
C#Cc1c(F)ccc2cc(O)cc(-c3ncc4c(N5CC6CCC(C5)N6)nc(OCC56CCCN5CC(F)C6)nc4c3F)c12 (stereo unspecified),"viability, T/C",compound 0.0316 µM,90.4% [middle of 4 runs]
same,"viability, T/C",compound 0.1 µM,40.8% [middle of 4 runs]
same,"viability, T/C",compound 0.316 µM,25.4% [middle of 4 runs]
same,"viability, T/C",compound 1 µM,15.6% [middle of 4 runs]
same,"viability, T/C",compound 3.16 µM,14.8% [middle of 4 runs]
same,"viability, T/C",compound 10 µM,11.7% [middle of 4 runs]
same,IC50,curve of compound,80.8 nM [middle of 4 runs]
CC(=O)c1c(C)c2cnc(Nc3ccc(N4CCNCC4)cn3)nc2n(C2CCCC2)c1=O + CC(Nc1ncnc2nc[nH]c12)c1cc2cccc(Cl)c2c(=O)n1-c1ccccc1,IC50,"curve of first compound, second compound 0.0316 µM",> 100 nM
same,IC50,"curve of first compound, second compound 0.1 µM",> 100 nM
same,IC50,"curve of first compound, second compound 0.316 µM",> 100 nM
same,IC50,"curve of first compound, second compound 1 µM",> 100 nM
same,IC50,"curve of first compound, second compound 3.16 µM",> 100 nM
same,IC50,"curve of first compound, second compound 10 µM",> 100 nM
same,"viability, T/C","second compound 0.0316 µM, first compound 0.000316 µM",87.2%
same,"viability, T/C","second compound 0.0316 µM, first compound 0.001 µM",96.8%
same,"viability, T/C","second compound 0.0316 µM, first compound 0.00316 µM",114%
same,"viability, T/C","second compound 0.0316 µM, first compound 0.01 µM",97.2%
same,"viability, T/C","second compound 0.0316 µM, first compound 0.0316 µM",109%
same,"viability, T/C","second compound 0.0316 µM, first compound 0.1 µM",113%
same,"viability, T/C","second compound 0.1 µM, first compound 0.000316 µM",87.2%
same,"viability, T/C","second compound 0.1 µM, first compound 0.001 µM",91.5%
same,"viability, T/C","second compound 0.1 µM, first compound 0.00316 µM",99%
same,"viability, T/C","second compound 0.1 µM, first compound 0.01 µM",96%
same,"viability, T/C","second compound 0.1 µM, first compound 0.0316 µM",116%
same,"viability, T/C","second compound 0.1 µM, first compound 0.1 µM",133%
same,"viability, T/C","second compound 0.316 µM, first compound 0.000316 µM",96.9%
same,"viability, T/C","second compound 0.316 µM, first compound 0.001 µM",97.2%
same,"viability, T/C","second compound 0.316 µM, first compound 0.00316 µM",97.7%
same,"viability, T/C","second compound 0.316 µM, first compound 0.01 µM",107%
same,"viability, T/C","second compound 0.316 µM, first compound 0.0316 µM",118%
same,"viability, T/C","second compound 0.316 µM, first compound 0.1 µM",127%
same,"viability, T/C","second compound 1 µM, first compound 0.000316 µM",96.3%
same,"viability, T/C","second compound 1 µM, first compound 0.001 µM",96.8%
same,"viability, T/C","second compound 1 µM, first compound 0.00316 µM",107%
same,"viability, T/C","second compound 1 µM, first compound 0.01 µM",107%
same,"viability, T/C","second compound 1 µM, first compound 0.0316 µM",122%
same,"viability, T/C","second compound 1 µM, first compound 0.1 µM",118%
same,"viability, T/C","second compound 3.16 µM, first compound 0.000316 µM",98.2%
same,"viability, T/C","second compound 3.16 µM, first compound 0.001 µM",104%
same,"viability, T/C","second compound 3.16 µM, first compound 0.00316 µM",89.1%
same,"viability, T/C","second compound 3.16 µM, first compound 0.01 µM",110%
same,"viability, T/C","second compound 3.16 µM, first compound 0.0316 µM",99.5%
same,"viability, T/C","second compound 3.16 µM, first compound 0.1 µM",119%
same,"viability, T/C","second compound 10 µM, first compound 0.000316 µM",84%
same,"viability, T/C","second compound 10 µM, first compound 0.001 µM",93.1%
same,"viability, T/C","second compound 10 µM, first compound 0.00316 µM",89.7%
same,"viability, T/C","second compound 10 µM, first compound 0.01 µM",79.3%
same,"viability, T/C","second compound 10 µM, first compound 0.0316 µM",100%
same,"viability, T/C","second compound 10 µM, first compound 0.1 µM",97.9%
COc1c(OCCCN2CCOCC2)ccc2c3n(c(=NC(=O)c4cnc(N)nc4)nc12)CCN3,"viability, T/C",compound 0.00316 µM,98.7% [middle of 8 runs]
same,"viability, T/C",compound 0.01 µM,97.8% [middle of 8 runs]
same,"viability, T/C",compound 0.0316 µM,73.4% [middle of 8 runs]
same,"viability, T/C",compound 0.1 µM,16.7% [middle of 8 runs]
same,"viability, T/C",compound 0.316 µM,6.29% [middle of 8 runs]
same,"viability, T/C",compound 1 µM,2.87% [middle of 8 runs]
same,IC50,"compound alone, run of 05/09/2023",51.4 nM [middle of 8 runs]
